Reference: patent US20150173351A1, “MICROCAPSULE” (priority 2012, published 2015)

Experiment: Retention rate of the agriculturally active ingredient after xenon light irradiation (photodegradation)
Format: physicochemical
Details: active ingredient alone, air-dried on glass petri dish; xenon light (290 nm cutoff), 0.68 W/m^2 at 340 nm, 8 hours, 35° C.; weight % relative to 5 mg
Protocol: A method for the calculation of a retention rate of the agriculturally active ingredient defined above is more specifically as follows. First, 250 mg of the agriculturally active ingredient is dissolved in 50 mL of a solvent such as acetone, which can sufficiently dissolve the agriculturally active ingredient and also has high volatility, and 1 mL of the solution is added to a glass petri dish having a diameter of 6 cm using a one-mark pipette, spread entirely over the petri dish, and then air-dried at room temperature. The petri dish is covered with a lid made of quartz glass and then set in a weathering tester (manufactured by Q-Lab Corporation under the trade name of Q-SUN Xenon Accelerated Weathering Tester, Model Xe-3) equipped with a borosilicate filter (manufactured by Q-Lab Corporation under the trade name of Daylight-BB Optical Filter) attached thereto. After irradiation with xenon light under the conditions of an intensity at 340 nm of 0.68 W/m^2 and a temperature of 35° C. (35° C. as measured by an insulated black panel thermometer) for 8 hours, the amount of the agriculturally active ingredient remaining on the petri dish is determined by a known determination method such as high-performance liquid chromatography. It is possible to determine a retention rate by calculating as the weight percentage relative to 5 mg of the agriculturally active ingredient used above. The above agriculturally active ingredient used in the microcapsule of the present invention may be any of an insecticidally active component, a fungicidally active component, and a herbicidally active component, and is not particularly limited. The agriculturally active ingredient includes fenpyrazamine, allethrin, and prallethrin. […] It is preferred to use an agriculturally active ingredient which is solid at normal temperature (25° C.), for example fenpyrazamine.

| Compound | retention rate after irradiation with xenon light [%] |
| --- | --- |
| C=CCSC(=O)n1c(N)c(-c2ccccc2C)c(=O)n1C(C)C [fenpyrazamine] | 28.1 |
| C=CCC1=C(C)C(OC(=O)C2C(C=C(C)C)C2(C)C)CC1=O (stereo not drawn) [allethrin] | 3.3 |
| C#CCC1=C(C)C(OC(=O)C2C(C=C(C)C)C2(C)C)CC1=O (stereo not drawn) [prallethrin] | 6.4 |
